Assay results reported in patent US20080175831A1 (priority 2006, published 2008).

Legend:
Kv1.1 mutant mice = test: Neural damage in the hippocampus assessed with FluoroJade B staining after systemic treatment; format: in vivo, mouse; conditions: blood flow suppressor 7-nitroindazole 50 mg/kg IP; blood flow enhancer acetazolamide 30 mg/kg IP
Experimental: Ictal hyperemia and/or ischemia leads to neuronal damage. The contribution of ictal blood flow to neural damage (assessed with Fluorojade B staining) is determined by measuring the neural damage in the hippocampus, as a function of systemic treatment with a blood flow suppressor (e.g., 7-nitroindazole; 50 mg/kg IP) and a blood flow enhancer (e.g., acetazolamide; 30 mg/kg IP).
Ictal hyperemia and/or ischemia leads to neuronal damage. The contribution of ictal blood flow to neural damage is assessed with FluoroJade B staining to measure the neural damage in the hippocampus, as a function of systemic treatment with a blood flow suppressor (7-nitroindazole; 50 mg/kg IP) and enhancer (acetazolamide; 30 mg/kg IP).
Ten minutes before imaging blood flow, drugs will be administered by IP injection at a volume of 0.01 ml per g of body weight. […]
The staining solution is made with 0.01% stock solution of FluoroJade B (Histo-Chem. Inc., Jefferson Ark.) in distilled water (final dye concentration of 0.0004%). […] The tissue representing the hippocampus is then examined using epifluorescence microscopy with blue (450-490 nm) excitation light: the position of the imaging focus is localized by the red Di-I track from the cannula, and neuronal damage is assessed by FluoroJade B staining colored green. […]

seizures = conditions: in vivo; cited from earlier work
Kv1.1 mutants = conditions: 30 mg/kg IP; cited from earlier work
[1] = system: C3Heb/FeJ strain of Kv1.1 knockouts; test: Status epilepticus induced with kainate, three-stage injection protocol; format: in vivo, mouse
Experimental: A three-stage injection protocol is employed to induce status epilepticus with kainate. Mice are given 10 mg/kg (in pH 7.4 saline) of kainate subcutaneously, after which they begin electroclinical seizure activity. An additional 5 mg/kg is administered 30 minutes after behavioral seizure initiation, followed by another 5 mg/kg dose sc after another 30 minutes. This protocol has previously provided a high survivability rate (greater than 90%) in the C3Heb/FeJ strain of Kv1.1 knockouts, and to moreover sustain the status for at least a 2-hour duration. Behavioral seizure scoring is conducted using a modified Racine scale, and cumulative seizure scores are generated for each animal (a seizure score is given every minute, with the highest numerical value based on the Racine scale; then the cumulative score is generated by adding all the individual scores for each minute of seizure activity).

[2] = kainate 10 mg/kg sc, then 5 mg/kg and 5 mg/kg at 30 minute intervals

O=[N+]([O-])c1cccc2cn[nH]c12 [7-nitroindazole]
neural damage in the hippocampus (FluoroJade B staining) (Kv1.1 mutant mice): less neural damage

CC(=O)Nc1nnc(S(N)(=O)=O)s1 [acetazolamide]
effect on seizures (seizures): reduce seizures
neural damage in the hippocampus (FluoroJade B staining) (Kv1.1 mutant mice): increased neural damage
effect on blood flow (Kv1.1 mutants): increased blood flow

C=C(C)[C@H]1CN[C@H](C(=O)O)[C@H]1CC(=O)O [kainate]
duration of sustained status epilepticus [1, 2]: ≥ 2 h
survivability rate [1, 2]: greater than 90%
neural damage after kainate-induced status epilepticus (FIGS. 6A-6B) ([1]; mouse, FluoroJade B): statistically significant effects of neural damage
